Data on 15 compounds can be found in patent publication US4703110A, “Benzoic acid derivatives having a para substituent which is a substituted phenyl group connected by a linking radical; useful in neoplastic cell differentiation and diagnosis” (Shudo; Koichi, priority 1984, dated 1987).

Molecules are shown by their SMILES.

Assay [1] concerns human acute promyelocytic leukemia cells (HL-60). In words: Differentiation of HL-60 cells, morphological changes of nuclei (Wright-Giemsa). Format: cell-based. Particulars: HL-60, 4 days; test concentration not stated. On the procedure:
The HL-60 cells are cultured in plastic flasks in RPMI-1640 medium supplemented with 5% heat inactivated fetal calf serum and antibiotics (penicillin G and streptomycin). The cells (3×10^4 /ml) were cultured with a compound of the present invention for 4 days. Growth inhibition of the cells by the test compounds was determined by counting the number of cells by microscope and relative ratio was examined by taking the number of cells by control (without test compound) as 100%. The cells are fixed and stained with Wright-Giemsa to examine the morphological changes of the nuclei.

Assay [2] shares this test system. Nature of the assay: Reduction of nitro-blue tetrazolium (NBT) by treated HL-60 cells. In kind it is cell-based. The note with it: HL-60, 5 days incubation, TPA 200 ng/ml, 0.1% NBT, 20 minutes at 37° C. On the procedure: The biochemical activity of cells treated with the compound was measured as follows:
The cells after 5 days incubation are centrifuged and diluted with RPMI-1640 medium supplemented with 5% fetal calf serum, to provide a definite number of the cells. To the diluted cell suspension are then added 200 ng/ml of […] (TPA) and the resulting culture medium is then incubated for 20 minutes at 37° C. in the presence of 0.1% of NBT. Thus, the mature differentiated cells containing blue-black formazan is counted by microscopy, so that the ratio of the cells having the ability to reduce NBT, to total cells, can be calculated.

For assay [3], the system named is HL-60 transplanted to nude mice. In words: Treatment of nude mice transplanted with HL-60. Format: in vivo, nude mouse (BALB/c, nu/nu). The note with it: per os, 200 mg/kg/day, days 9, 14 and 17 after transplantation; measured 4, 6, 8 and 11 days after first administration. The protocol: A test of treatment of nude mice, to which HL-60 have been transplanted, with a compound of the present invention is performed as follows:
A test compound (e.g., p-(5,6,7,8-tetrahydro-5,5,8,8-tetramethyl-2-naphthylcarbamoyl)benzoic acid) is suspended in 10% (v/v) Tween 80 in a concentration of 10 mg/ml. Cells (5×10^7) of HL-60 were transplanted subcutaneously to a nude mouse (BALB/c, nu/nu female Nihon Clea).
At the end of days 9, 14 and 17 after the transplantation, 0.1 ml of the suspension per 10 g of body weight of mouse were administrated per os two times at intervals of 7 hours (200 mg/kg/day).

Consider `CCc1ccc(C(=O)C=Cc2ccc(C(=O)OC)cc2)cc1CC` [H Et Et H H OCH3 drawing 7], for which, in assay [1], the “Banded and Segmented Neutrophils” value is 8%; the “Myelocytes and Metamyelocytes” value is listed as 54%; the Promyelocytes is 38%. In assay [2], the “Reductivity of NBT” value was determined as 72%.

For `COC(=O)c1ccc(C2OC2c2ccc3c(c2)C(C)(C)CCC3(C)C)cc1` (stereo not shown) [H drawing 10 H H OCH3 drawing 9], in assay [1], the “Banded and Segmented Neutrophils” value is given as 18%; the “Myelocytes and Metamyelocytes” value turned out to be 63%; the Promyelocytes turned out to be 19%. Further, the “Reductivity of NBT” value in assay [2] worked out at 78%.

Turning to `COC(=O)c1ccc(C2OC2(C)c2ccc3c(c2)C(C)(C)CCC3(C)C)cc1` (stereo not shown) [H drawing 10 H H OCH3 drawing 11], in assay [1], the “Banded and Segmented Neutrophils” value came to 9%; the “Myelocytes and Metamyelocytes” value was 79%; the Promyelocytes worked out at 12%. For the same compound, the “Reductivity of NBT” value in assay [2] is given as 81%.

On to `CC1(C)CCC(C)(C)c2cc([N+]([O-])=Nc3ccc(C(=O)O)cc3)ccc21` [H drawing 12 H H OH drawing 13], for which, in assay [1], the “Banded and Segmented Neutrophils” value is given as 7%; the “Myelocytes and Metamyelocytes” value is 53%; the Promyelocytes stood at 40%. Also, the “Reductivity of NBT” value in assay [2] was found to be 70%.

For the compound `COC(=O)c1ccc(C2OC2c2cccc(C(C)(C)C)c2)cc1` (stereo not shown) [H tBu H H H OCH3 drawing 9], in assay [1], the “Banded and Segmented Neutrophils” value is given as 9%; the “Myelocytes and Metamyelocytes” value is listed as 69%; the Promyelocytes stood at 20%. In assay [2], the “Reductivity of NBT” value is given as 70%.

Take `CC(C)(C)c1cc(C(=O)C=Cc2ccc(C(=O)O)cc2)cc(C(C)(C)C)c1` [No. 8]: in assay [1], the “Banded and Segmented Neutrophils” value amounted to 16%; the “Myelocytes and Metamyelocytes” value amounted to 82%; the Promyelocytes is recorded as 2%. In assay [2], the “Reductivity of NBT” value is recorded as 95%.

With `CC(C)(C)c1ccc(C(=O)C=Cc2ccc(C(=O)O)cc2)cc1` [No. 9], in assay [1], the “Banded and Segmented Neutrophils” value came to 6%; the “Myelocytes and Metamyelocytes” value stood at 48%; the Promyelocytes was 46%. The “Reductivity of NBT” value in assay [2] was 68%.

As to `CC1(C)CCC(C)(C)c2cc(C(=O)C=Cc3ccc(C(=O)O)cc3)ccc21` [No. 11], in assay [1], the “Banded and Segmented Neutrophils” value worked out at 12%; the “Myelocytes and Metamyelocytes” value amounted to 86%; the Promyelocytes stood at 2%. For the same compound, the “Reductivity of NBT” value in assay [2] worked out at 95%.

As to `COC(=O)c1ccc(C=CC(=O)c2ccc3c(c2)C(C)(C)CCC3(C)C)cc1` [No. 13], in assay [1], the “Banded and Segmented Neutrophils” value was found to be 4%; the “Myelocytes and Metamyelocytes” value is reported as 91%; the Promyelocytes came out at 5%. Moreover, the “Reductivity of NBT” value in assay [2] came to 97%.

As to `CC(C)c1ccc(NC(=O)c2ccc(C(=O)O)cc2)cc1C(C)C` [No. 30], in assay [1], the “Banded and Segmented Neutrophils” value came to 11%; the “Myelocytes and Metamyelocytes” value amounted to 82%; the Promyelocytes is 7%. In addition, the “Reductivity of NBT” value in assay [2] amounted to 90%.

For the compound `COC(=O)c1ccc(C(=O)Nc2ccc3c(c2)C(C)(C)CCC3(C)C)cc1` [No. 34], in assay [1], the “Banded and Segmented Neutrophils” value is 12%; the “Myelocytes and Metamyelocytes” value is 85%; the Promyelocytes amounted to 3%. Also, the “Reductivity of NBT” value in assay [2] is reported as 97%.

Regarding `CC1(C)CCC(C)(C)c2cc(NC(=O)c3ccc(C(=O)O)cc3)ccc21` [No. 35, p-(5,6,7,8-tetrahydro-5,5,8,8-tetramethyl-2-naphthylcarbamoyl)benzoic acid], in assay [1], the “Banded and Segmented Neutrophils” value turned out to be 19%; the “Myelocytes and Metamyelocytes” value turned out to be 78%; the Promyelocytes is 3%. In assay [2], the “Reductivity of NBT” value came out at 98%. Further, in assay [3], the Tumor growth entry is recorded as “tumor growth was clearly suppressed”.

As to `CC(C)c1ccc(N=Nc2ccc(C(=O)O)cc2)cc1C(C)C` [No. 50], in assay [1], the “Banded and Segmented Neutrophils” value was 11%; the “Myelocytes and Metamyelocytes” value stood at 50%; the Promyelocytes came out at 39%. In addition, the “Reductivity of NBT” value in assay [2] came out at 55%.

With `COC(=O)c1ccc(N=Nc2ccc3c(c2)C(C)(C)CCC3(C)C)cc1` [No. 57], in assay [1], the “Banded and Segmented Neutrophils” value came to 10%; the “Myelocytes and Metamyelocytes” value is 49%; the Promyelocytes was 41%. Further, the “Reductivity of NBT” value in assay [2] was determined as 60%.

On to `CC1=C(/C=C/C(C)=C/C=C/C(C)=C/C(=O)O)C(C)(C)CCC1` [Retinoic acid, reference compound], for which, in assay [1], the “Banded and Segmented Neutrophils” value came to 4%; the “Myelocytes and Metamyelocytes” value is recorded as 71%; the Promyelocytes is recorded as 25%. Further, the “Reductivity of NBT” value in assay [2] amounted to 75%.
